The values below come from patent US20240336594A1, “SIX-MEMBERED ARYL OR HETEROARYL AMIDES, AND COMPOSITION AND USE THEREOF” (BETTA PHARMACEUTICALS CO., LTD, priority 2021, published 2024).

The target in this assay is T1, MALT1 (Homo sapiens, UniProt Q9UDY8).
T1 sequence (Q9UDY8 1-824): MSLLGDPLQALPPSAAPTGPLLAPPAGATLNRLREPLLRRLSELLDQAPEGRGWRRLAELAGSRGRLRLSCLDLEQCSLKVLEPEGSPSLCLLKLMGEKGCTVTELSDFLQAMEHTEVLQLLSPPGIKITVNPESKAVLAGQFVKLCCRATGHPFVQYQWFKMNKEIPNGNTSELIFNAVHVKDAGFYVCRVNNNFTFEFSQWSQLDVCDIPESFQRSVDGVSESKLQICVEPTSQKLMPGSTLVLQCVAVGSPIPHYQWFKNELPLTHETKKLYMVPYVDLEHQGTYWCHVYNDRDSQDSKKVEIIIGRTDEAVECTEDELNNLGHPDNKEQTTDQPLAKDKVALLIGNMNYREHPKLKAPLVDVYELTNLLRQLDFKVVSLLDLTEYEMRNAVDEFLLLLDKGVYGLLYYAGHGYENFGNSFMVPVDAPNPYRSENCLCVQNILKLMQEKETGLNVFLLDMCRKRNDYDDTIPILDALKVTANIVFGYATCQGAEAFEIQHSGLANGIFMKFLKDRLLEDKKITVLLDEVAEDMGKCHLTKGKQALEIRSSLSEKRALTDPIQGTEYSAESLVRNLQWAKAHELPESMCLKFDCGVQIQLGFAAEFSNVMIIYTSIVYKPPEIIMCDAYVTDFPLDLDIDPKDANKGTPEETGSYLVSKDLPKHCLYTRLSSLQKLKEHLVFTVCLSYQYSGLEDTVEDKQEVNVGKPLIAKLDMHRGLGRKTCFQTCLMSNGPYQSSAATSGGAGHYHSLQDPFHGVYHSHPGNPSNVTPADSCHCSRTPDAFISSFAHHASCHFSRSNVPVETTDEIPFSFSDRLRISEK
Put plainly: MALT1 protease inhibition assay (AMC-labeled peptide, fluorescence 360/460). The class given is biochemical. The conditions noted are these: substrate Ac-LRSR-AMC, 15 min preincubation, 90 min at 25° C. How it is done: Test compounds of the present invention (in 100% DMSO) were spotted into a 384-well dilution plate and serially diluted to the required concentrations with DMSO. Then, 0.2 μL of the test compounds were transferred into a new 384-well reaction plate by Echo following centrifugation. The MALT enzyme and its substrate, AMC-labeled peptide, were prepared in 1× protease buffer to yield 2× enzyme solution and 2× peptide solution. Subsequently, 10 μL of 2× enzyme solution was added into the 384-well reaction plate, incubating with the test compounds for 15 minutes at 25° C. After that, 10 μL of 2× peptide solution was added into the plate, continuing to incubate for 90 minutes at 25° C. The plate was then placed on an Envision multifunctional microplate reader to collect raw data, which would be converted into inhibition rate:
Inhibition rate %=(max−sample)/(max−min)*100%. • “max” values were measured using the reaction with enzyme but no compound treated, while “min” values were generated from control wells containing assay buffer without enzyme.
Curve fitting was done with Graphpad Prism software to determine the IC50 values. The specific experimental operations are as follows:
58.82 g Na Citrate·2H2O powder was added into 140 mL ddH2O and mixed in a 37° C. water bath. Once there were no visible particles, the remaining solutions were added successively with continuous stirring for 10 minutes. The final volume was adjusted to 200 mL. The buffer was stored at room temperature. DTT was added before use.
• 1) All test compounds were diluted from 10 mM stock solution into 1 mM in a 384 well dilution plate (labcyte, PP-0200); • 2) Ten various concentrations of the diluted compound solution above were obtained by serial dilution at an equal ratio of 1:3; • 3) 0.2 μL DMSO was transferred to two empty wells of the 384 reaction plate as blank controls without compound and enzyme respectively; • 4) 0.2 μL of the test compound at different concentrations was also transferred into the 384 reaction plate by Echo, with two duplicate wells for each concentration, then the plate was centrifuged at 1000 rpm for 1 min.
• 1) The MALT1 protease and AMC-labeled peptide was prepared in 1× protease buffer to obtain 2× enzyme solution and 2× peptide solution. 10 μL of 2× enzyme solution was added into the 384-well reaction plate. The plate was centrifuged at 1000 rpm for 1 min and incubated for 15 min at 25° C. • 2) 10 μL of 2× peptide solution was then transferred to the 384 reaction plate, and the plate was centrifuged at 1000 rpm for 1 min and incubate for 90 min at 25° C.

Some results are limits rather than exact numbers.

In general, IC50 refers to the concentration that gives 50% inhibition.

Turning to `C#Cc1cnccc1-c1cc(Cl)c(C(=O)Nc2cnc(C(=O)NCC(=O)N(CC)CC)c(Cl)c2)cc1F` [Example A435, 3-chloro-5-(2-chloro-4-(3-ethynylpyridin-4-yl)-5-fluorobenzamido)-N-(2-(diethylamino)-2-oxoethyl)picolinamide], the IC50 fell in the range of 0.01 to 0.1 µM. Next, `CC1(CNC(=O)c2ncc(NC(=O)c3cc(F)c(-c4ccc(F)cc4N)cc3Cl)cc2Cl)CC1` [Example A436, 5-(2′-amino-5-chloro-2,4′-difluoro-[1,1′-biphenyl]-4-carboxamido)-3-chloro-N-((1-methylcyclopropyl)methyl) picolinamide]: 0.1 to 0.5 µM; `Nc1cc(F)ccc1-c1cc(Cl)c(C(=O)Nc2cnc(C(=O)NCC3CCS(=O)(=O)CC3)c(Cl)c2)cc1F` [Example A437, 5-(2′-amino-5-chloro-2,4′-difluoro-[1,1′-biphenyl]-4-carboxamido)-3-chloro-N-((1,1-dioxidotetrahydro-2H-thiopyran-4-yl)methyl)picolinamide]: 0.01 to 0.1 µM; `CCCCNC(=O)c1ncc(NC(=O)c2cc(F)c(-c3ccc(F)cc3N)cc2Cl)cc1Cl` [Example A438, 5-(2′-amino-5-chloro-2,4′-difluoro-[1,1′-biphenyl]-4-carboxamido)-N-butyl-3-chloropicolinamide]: 0.01 to 0.1 µM. Next, `C#CCNC(=O)c1ncc(NC(=O)c2cc(F)c(-c3ccc(F)cc3N)cc2Cl)cc1Cl` [Example A439, 5-(2′-amino-5-chloro-2,4′-difluoro-[1,1′-biphenyl]-4-carboxamido)-3-chloro-N-(prop-2-yn-1-yl) picolinamide]: greater than 0.5 µM; `O=C(Nc1cnc(-n2nccn2)c(C(F)(F)F)c1)c1cc(F)c(-c2c(Br)cncc2[N+](=O)[O-])cc1Cl` [Example A440, N-(6-(2H-1,2,3-triazol-2-yl)-5-(trifluoromethyl)pyridin-3-yl)-4-(3-bromo-5-nitropyridin-4-yl)-2-chloro-5-fluorobenzamide]: 0.01 to 0.1 µM; `N#CCNC(=O)c1ncc(NC(=O)c2cc(F)c(-c3ccc(F)cc3N)cc2Cl)cc1Cl` [Example A441, 5-(2′-amino-5-chloro-2,4′-difluoro-[1,1′-biphenyl]-4-carboxamido)-3-chloro-N-(cyanomethyl)picolinamide]: 0.01 to 0.1 µM. In the case of `Cc1cc(F)cc(N)c1-c1cc(Cl)c(C(=O)Nc2cnc(C(=O)NCC#N)c(Cl)c2)cc1F` [Example A442, 5-(2′-amino-5-chloro-2,4′-difluoro-6′-methyl-[1,1′-biphenyl]-4-carboxamido)-3-chloro-N-(cyanomethyl)picolinamide], the IC50 fell in the range of 0.01 to 0.1 µM. Turning to `Nc1cc(F)ccc1-c1cc(Cl)c(C(=O)Nc2cnc(C(=O)NCC(F)(F)F)c(Cl)c2)cc1F` [Example A443, 5-(2′-amino-5-chloro-2,4′-difluoro-[1,1′-biphenyl]-4-carboxamido)-3-chloro-N-(2,2,2-trifluoroethyl)picolinamide], the IC50 was no more than 0.01 µM. The result for `CCNC(=O)c1ncc(NC(=O)c2cc(F)c(-c3ccc(F)cc3N)cc2Cl)cc1Cl` [Example A444, 5-(2′-amino-5-chloro-2,4′-difluoro-[1,1′-biphenyl]-4-carboxamido)-3-chloro-N-ethylpicolinamide] reads no more than 0.01 µM. Compound `O=C(Nc1cnc(-n2nccn2)c(Cl)c1)c1cc(F)c(-c2ccncc2C2CC2)cc1Cl` [Example A445, 2-chloro-N-(5-chloro-6-(2H-1,2,3-triazol-2-yl)pyridin-3-yl)-4-(3-cyclopropylpyridin-4-yl)-5-fluorobenzamide] yielded an IC50 of 0.01 to 0.1 µM. The result for `CC(C)(C)CNC(=O)c1ncc(NC(=O)c2cc(F)c(-c3ccc(F)cc3N)cc2Cl)cc1Cl` [Example A446, 5-(2′-amino-5-chloro-2,4′-difluoro-[1,1′-biphenyl]-4-carboxamido)-3-chloro-N-neopentylpicolinamide] reads no more than 0.01 µM; that for `Nc1cc(F)ccc1-c1cc(Cl)c(C(=O)Nc2cnc(C(=O)NCc3ccoc3)c(Cl)c2)cc1F` [Example A447, 5-(2′-amino-5-chloro-2,4′-difluoro-[1,1′-biphenyl]-4-carboxamido)-3-chloro-N-(furan-3-ylmethyl)picolinamide], 0.01 to 0.1 µM; that for `COCCNC(=O)c1ncc(NC(=O)c2cc(F)c(-c3ccc(F)cc3N)cc2Cl)cc1Cl` [Example A449, 5-(2′-amino-5-chloro-2,4′-difluoro-[1,1′-biphenyl]-4-carboxamido)-3-chloro-N-(2-methoxyethyl)picolinamide], 0.01 to 0.1 µM. For `CC(C#N)NC(=O)c1ncc(NC(=O)c2cc(F)c(-c3ccc(F)cc3N)cc2Cl)cc1Cl` (stereo not shown) [Example A450, 5-(2′-amino-5-chloro-2,4′-difluoro-[1,1′-biphenyl]-4-carboxamido)-3-chloro-N-(1-cyanoethyl)picolinamide], the IC50 lay in the range of 0.01 to 0.1 µM. In turn, `Nc1cc(F)ccc1-c1cc(Cl)c(C(=O)Nc2cnc(C(=O)NCC3CC(F)(F)C3)c(Cl)c2)cc1F` [Example A451, 5-(2′-amino-5-chloro-2,4′-difluoro-[1,1′-biphenyl]-4-carboxamido)-3-chloro-N-((3,3-difluorocyclobutyl)methyl) picolinamide] returned an IC50 of 0.01 to 0.1 µM.

`Nc1cc(F)ccc1-c1cc(Cl)c(C(=O)Nc2cnc(C(=O)NCc3nnco3)c(Cl)c2)cc1F` [Example A452, N-((1,3,4-oxadiazol-2-yl)methyl)-5-(2′-amino-5-chloro-2,4′-difluoro-[1,1′-biphenyl]-4-carboxamido)-3-chloropicolinamide] displayed an IC50 of 0.1 to 0.5 µM. Next, `CN(C)CCNC(=O)c1ncc(NC(=O)c2cc(F)c(-c3ccc(F)cc3N)cc2Cl)cc1Cl` [Example A453, 5-(2′-amino-5-chloro-2,4′-difluoro-[1,1′-biphenyl]-4-carboxamido)-3-chloro-N-(2-(dimethylamino)ethyl) picolinamide]: 0.1 to 0.5 µM. The result for `Nc1cc(F)ccc1-c1cc(Cl)c(C(=O)Nc2cnc(C(=O)NCC3CCC3)c(Cl)c2)cc1F` [Example A454, 5-(2′-amino-5-chloro-2,4′-difluoro-[1,1′-biphenyl]-4-carboxamido)-3-chloro-N-(cyclobutylmethyl) picolinamide] reads 0.1 to 0.5 µM; that for `Cn1ccc(CNC(=O)c2ncc(NC(=O)c3cc(F)c(-c4ccc(F)cc4N)cc3Cl)cc2Cl)n1` [Example A455, 5-(2′-amino-5-chloro-2,4′-difluoro-[1,1′-biphenyl]-4-carboxamido)-3-chloro-N-((1-methyl-1H-pyrazol-3-yl)methyl)picolinamide], 0.01 to 0.1 µM; that for `N#CCNC(=O)c1ncc(NC(=O)c2cc(F)c(-c3ccc(F)nc3N)cc2Cl)cc1Cl` [Example A456, 5-(4-(2-amino-6-fluoropyridin-3-yl)-2-chloro-5-fluorobenzamido)-3-chloro-N-(cyanomethyl)picolinamide], 0.01 to 0.1 µM. Next, `Nc1cc(F)ccc1-c1cc(Cl)c(C(=O)Nc2cnc(C(=O)NCC(F)(F)C(F)(F)C(F)(F)F)c(Cl)c2)cc1F` [Example A458, 5-(2′-amino-5-chloro-2,4′-difluoro-[1,1′-biphenyl]-4-carboxamido)-3-chloro-N-(2,2,3,3,4,4,4-heptafluorobutyl) picolinamide]: greater than 0.5 µM.
